From US20110201648A1, “POLY-HETEROARYL DERIVATIVES FOR THE TREATMENT OF CANCER” (INSTITUT CURIE, priority 2008, published 2011) come the findings set out here.

Molecules are shown by their SMILES.

The assay relates to F21T (human telomeric quadruplex-DNA). The assay is described as follows: FRET-melting assay with F21T. The class given is binding. The following applies: for ΔT1/2 F21T: 0.2 μM F21T, 1 μM compound; for F21T stabilization maintained: sodium buffer. As for the experimental part:
Stabilization, and so interaction, of compounds with quadruplex-structure is monitored via FRET-melting assay, in a version that also enables the determination of the quadruplex-over duplex-DNA selectivity as well as the intra-quadruplex selectivity (17).
FRET assay is performed with oligonucleotides that mimic the human or plasmodium telomeric sequences, and equipped with FRET partners at each extremities: F21T (FAM-G3[T2AG3]3-Tamra,) FPf1T (FAM-G3[T3AG3]3-Tamra) and FPf8T (FAM-G3[T2CAG3]3-Tamra) with FAM: 6-carboxyfluorescein and Tamra: 6-carboxy-tetramethylrhodamine). Measurements were made with excitation at 492 nm and detection at 516 nm.
Fluorescence melting were carried out. The results are given on FIG. 3A-FIG. 3C. The experiments were carried out with 0.2 μM of F21T, FPf1T or FPf8T in a buffer containing 10 mM lithium cacodylate pH 7.2 and 100 mM NaCl or KCl (see example of F21T below, NaCl (left) and KCl (right)); the melting of the quadruplex-DNA was monitored alone and in the presence of 1 μM (5 equiv.) of compound 3.
Fluorescence melting are carried out with 0.2 μM of F21T in a buffer containing 10 mM lithium cacodylate pH 7.2 and 100 mM NaCl; the melting of the G-quadruplex was monitored alone and in the presence of 1 μM of compound 3 without or with excess (1, 3 and 10 μM) of duplex-DNA competitor ds26 (a 26 base-pair duplex-DNA comprised of the self complementary sequence [5′-[…]-3′]). The results are given on FIG. 4
Fluorescence melting experiments are carried out with 0.2 μM of F21T in a buffer containing 10 mM lithium cacodylate pH 7.2 and 100 mM NaCl; the melting of the G-quadruplex was monitored alone and in the presence of 1 μM of compound 3 without or with excess (1, 3 and 10 μM) of quadruplex-DNA competitors, both TG5T ([(5′-TG5T-3′)4], a tetramolecular quadruplex-DNA used in previous study (21) or c-myc ([5′-[…]-3′], a sequence present in the promoter region of the oncogene c-myc, highly suspected to fold into an intramolecular quadruplex-structure (22-25). The results are given on FIG. 5A-FIG. 5B.
FIG. 16 gives results obtained in FRET-melting, using the same sodium conditions as above defined in a) and b), with compounds 3 and 4. The melting of the Fluorescently labelled quadruplex F21T was monitored alone and in the presence of 1 μM of compound 3 or compound 4 without or with excess (1.3 and 10 μM) of duplex-DNA competitor ds26 (a 26 base-pair duplex DNA comprised the above mentioned self-complementary sequence [5′-[…]-3′]).

Regarding `c1cc(-c2cnc(-c3cccc(-c4cnco4)n3)o2)nc(-c2cnc(-c3cccc(-c4cnco4)n3)o2)c1` [compound 3, 2,6-bis{2-[6-(oxazol-5-yl)pyridin-2-yl]oxazol-5-yl}pyridine], the “ΔT1/2 F21T” value reads like this: (K+ (100 mM KCl)) 1.3 °C; (Na+ (100 mM NaCl)) 14.6 °C. In addition, the F21T stabilization maintained is 61% (1 μM of TG5T competitor); 42% (1 μM of c-myc competitor); 37% (3 μM of TG5T competitor); 15% (3 μM of c-myc competitor); 17% (10 μM of TG5T competitor); 1% (10 μM of c-myc competitor). Further, the F21T stabilization maintained (in presence of 1, 3 or 10 μM of ds26 duplex competitor) is listed as greater than 91%.
